For seven compounds, AC50, IC50 and EC50 results are on record in ChEMBL document CHEMBL1201862, “PubChem BioAssay data set” (2004).

In general, AC50 refers to the concentration giving half of the maximal activity seen. By IC50 is commonly meant the midpoint of a concentration-inhibition curve. A word on the EC50: it is the concentration at which the effect is half-maximal.

Calls of active or inactive are those of the source.

Assay [1] addresses Paired box protein Pax-8 (Homo sapiens, UniProt Q06710). The experiment in a line: PAX8 transcriptional activity inhibition in RMG-I – RMG-I cells, luciferase, cherry-pick, dose response (AID 687027).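 Further: luciferase reporter driven by Pax8 target thyroperoxidase promoter measured by SteadyGlo luminescence.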 The format is functional, cell-based.
Assay [2] is described as follows: toxicity toward immortalized ovarian surface epithelium – cell-based, plate reader, dry powder samples, cytotoxicity control for PAX8 inhibitor project, dose response (AID 743045). Type of assay: functional.
Assay [3] is described as follows: OVCAR-3 cell viability loss – plate reader, dry powder samples, PAX8 inhibitor project, dose response (AID 743044). The format is functional, cell-based.
Assay [4] is described as follows: IGROV1 cell killing – plate reader, dry powder samples, PAX8 inhibitor project, dose response (AID 743043). The format is functional, cell-based. As to conditions: IGROV-1.
Assay [5] can be described thus: inhibition of Env-driven cell fusion – HIV entry, plate reader, dry powder, dose response (AID 687023). The format is functional, cell-based.
A short description of assay [6]: Late stage assay provider results from the probe development effort to identify inhibitors of the Plasmodium falciparum M18 Aspartyl Aminopeptidase (M18AAP): radiolabel-based cell-based dose response assay to identify compounds that inhibit P. falciparum growth in RBCs, Set 2.. Type of assay: functional.
Assay [7] is described as follows: Single fluorophore orthopox expression reporter, late gene expression Measured in Cell-Based and Microorganism Combination System Using Plate Reader - 2142-08_Inhibitor_Dose_DryPowder_Activity. Type of assay: functional.
Assay [8] can be described thus: lung carcinoma cell viability loss – CellTiter-Glo luminescence, dry powder, set 17, dose response (AID 1117284). Type of assay: functional, cell-based. As to conditions: A549. For orientation: Cellular ATP, detected with luciferase, serves as a proxy for viable cell number.
Assay [9] in a line: inhibitors of orthopox intermediate gene expression, dose response, cell-based, single fluorophore reporter, dry powder (AID 1117271). Type of assay: functional.
Assay [10] is described as follows: Orthopox viral replication plaque formation Measured in Cell-Based and Microorganism Combination System Using Imaging - 2142-05_Inhibitor_Dose_DryPowder_Activity. Type of assay: functional.
Assay [11] is described as follows: growth inhibition of yeast DHODH-expressing 3D7 parasites – SYBR Green, dry powder samples, dose response (AID 1159570).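 Further: parasite growth measured after 72 hours of compound exposure.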 The format is functional, cell-based.
Assay [12] is described as follows: toxicity to human HepG2 hepatoma cells – cell-based, plate reader, dry powder samples, cytotoxicity control, dose response (AID 1159569).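 Further: inhibitor potency with signal falling toward the positive control level.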 The format is functional.
Assay [13] can be described thus: Dd2 parasite growth inhibition in erythrocytes – SYBR Green, dry powder samples, set 4, dose response (AID 1159572). The format is functional, cell-based.
A short description of assay [14]: P. falciparum Dd2 growth inhibitors, dose response, SYBR Green, cherry-picked samples (AID 1159567). The format is functional, cell-based.
Assay [15] in a line: Dd2 malaria parasite growth inhibition potency – SYBR Green, dry powder samples, dose response (AID 1159566).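 Further: potency for growth inhibition with lower SYBR green DNA signal.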 The format is functional, cell-based.
Assay [16] can be described thus: toxicity to human hepatoma HepG2 cells – cell-based, cherry-picked samples, cytotoxicity control, dose response (AID 1159577). Type of assay: functional.
Assay [17] in a line: growth inhibition of PfATP4-mutant resistant parasites – NITD609-resistant line, SYBR Green, dry powder, dose response (AID 1159571).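 Further: parasites synchronized at ring stage by sorbitol before testing.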 Type of assay: functional, cell-based.
Assay [18] concerns BJ. As to the kind of experiment: BJ-TERT fibroblast viability loss – cell-based, RAS-independent, luminescence, dose response (AID 1933). The format is functional. As to conditions: Homo sapiens.
In assay [19] the test system is BJ. The experiment in a line: cells. Type of assay: functional, cell-based. As to conditions: Homo sapiens.
Assay [20] has as its system BJ. The experiment in a line: BJ-TERT-LT-ST fibroblast viability loss – cell-based, RAS-independent, luminescence, dose response (AID 1935).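 Further: BJ fibroblasts immortalized with TERT plus LT and ST oncogenes.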 The format is functional. Particulars: Homo sapiens.
Assay [21] is described as follows: DRD fibroblast viability loss – cell-based, non-viral oncogenic, luminescence, dose response (AID 1934). Type of assay: functional. As to conditions: Homo sapiens.
The test system of assay [22] is BJ. As to the kind of experiment: growth inhibition of engineered Ras-driven BJ cells – cell-based, alamar blue fluorescence, cherrypicked samples, dose response (AID 2631).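 Further: confirmatory dose-response assay in RAS-dependent BJ fibroblasts engineered with TERT, LT and ST, with cytotoxicity read by fluorescence.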 The format is functional. As to conditions: Homo sapiens. A general note: Resazurin is reduced to fluorescent resorufin, in cell work by metabolically active cells.
Assay [23] in a line: rise of 2N DNA cells, HeLa – IC50, dose response (AID 1117349). Type of assay: functional, cell-based.
Assay [24] can be described thus: CellTiter-Glo luminescence survival assay, SW480 colon tumor line, concentration-response curve, half-maximal inhibitory concentration (AID 1117338). Type of assay: functional.
Assay [25] is described as follows: RKO cell viability reduction, dose response, CellTiter-Glo luminescence (AID 1117322). Type of assay: functional.
Assay [26] can be described thus: cytotoxicity toward HCT116 cells – cell-based, CellTiter-Glo luminescence, IC50, dose response (AID 1117332). Type of assay: functional. Particulars: HCT-116.
The nature of assay [27]: SNU-C1 cell viability reduction, dose response, CellTiter-Glo luminescence (AID 1117323). The format is functional, cell-based.
Assay [28] in a line: cytotoxicity toward Colo320 cells – cell-based, CellTiter-Glo luminescence, IC50, dose response (AID 1117334). Type of assay: functional. Particulars: COLO 320.
Assay [29] can be described thus: rise of 4N DNA cells, HeLa – IC50, dose response (AID 1117351). Type of assay: functional, cell-based.
Assay [30] can be described thus: cytotoxicity toward HT-29 cells – cell-based, CellTiter-Glo luminescence, IC50, dose response (AID 1117330). The format is functional.
Assay [31] in a line: Reduced DLD-1 viability, concentration-response, CellTiter-Glo luminescence (AID 1117352). The format is functional.
Assay [32] can be described thus: HCT116 cell viability decrease, GSK3B pretreatment – CellTiter-Glo, IC50, dose response (AID 1117339). Type of assay: functional. As to conditions: HCT-116.
Assay [33] can be described thus: IC50 of insulin release inhibition, rat insulinoma INS-1E line, 5 mM glucose, cell-based (AID 1117331). Type of assay: functional.
Assay [34] is described as follows: cells. Particulars: INS-1E. Type of assay: functional, cell-based.

Paired box protein Pax-8, sequence (Q06710 whole entry): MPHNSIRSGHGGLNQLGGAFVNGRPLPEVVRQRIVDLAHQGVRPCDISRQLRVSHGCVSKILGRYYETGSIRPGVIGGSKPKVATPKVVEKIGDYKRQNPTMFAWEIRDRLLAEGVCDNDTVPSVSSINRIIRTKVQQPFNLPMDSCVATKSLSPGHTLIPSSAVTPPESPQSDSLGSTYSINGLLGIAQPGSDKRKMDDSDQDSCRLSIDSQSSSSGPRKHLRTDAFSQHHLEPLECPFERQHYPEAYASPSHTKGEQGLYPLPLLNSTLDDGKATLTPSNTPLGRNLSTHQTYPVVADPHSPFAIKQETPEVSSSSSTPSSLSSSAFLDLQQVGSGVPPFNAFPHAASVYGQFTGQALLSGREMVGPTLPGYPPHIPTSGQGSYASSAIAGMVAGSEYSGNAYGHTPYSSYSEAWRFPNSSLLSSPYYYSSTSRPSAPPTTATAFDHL

On to `C[C@@H]1CN([C@H](C)CO)C(=O)c2cc(NC(=O)Nc3ccccc3)ccc2O[C@@H](C)CCCCO[C@H]1CN(C)Cc1ccc(C(F)(F)F)cc1`, for which the AC50 in assay [1] is 10.9 µM (active); in [2], 31.7 µM (active); in assay [3] it was 24.2 µM (active); in assay [4], 36.2 µM (active).
As for `Cc1noc(C)c1S(=O)(=O)Nc1cccc2c1O[C@H](CN(C)Cc1ccc(C(F)(F)F)cc1)[C@@H](C)CN([C@@H](C)CO)C2=O`, the AC50 in assay [5] was > 70 µM (inactive).
Turning to `Oc1ccc(C2CCCN(c3ccnc4ccccc34)C2)cc1O` (centres undefined), the IC50 in assay [6] is 4.2 µM (active).
In the case of `Cc1ccccc1-c1ccc(CN(C)C[C@@H]2Oc3cc(C#C[C@@H](C)O)ccc3S(=O)(=O)N([C@@H](C)CO)C[C@@H]2C)cc1`, the AC50 in [7] is 0.768 µM (active); in assay [8] it was 34.6 µM (active); in [9] it was 1.65 µM (active); in assay [10], 2 µM (active).
Turning to `COc1ccc2c3c([nH]c2c1)[C@H](CO)N(C(=O)Cc1ccccc1)CC31CCN(C(=O)Nc2ccccc2F)CC1`, the AC50 in assay [11] is 0.0977 µM (active); in assay [12] it was > 100 µM (inactive); in assay [13] it was 0.277 µM (active); in [14], 0.472 µM (active); in [15] it was 0.208 µM (active); in [16] it was 25.2 µM (active). Moreover, the AC50 in assay [17] is 0.123 µM (active).
As for `COCc1c(C(C)C)nc(C(C)C)c(/C=C/[C@@H](O)C[C@@H](O)CC(=O)O)c1-c1ccc(F)cc1` [CERIVASTATIN SODIUM], the EC50 was 0.339 µM (inconclusive) in [18]; 0.347 µM (inconclusive) in assay [19]; 0.356 µM (inconclusive) in [20]; 0.338 µM (inconclusive) in assay [21]; < 0.104 µM (active) in assay [22]. For the same compound, the IC50 in assay [23] was > 10 µM (inactive); in assay [24], 0.143 µM (active); in assay [25], 1.01 µM (active); in [26] it was 0.24 µM (active); in [27], 1.87 µM (active); in assay [28], 1.92 µM (active). For the same compound, the IC50 is > 10 µM (inactive) in [29], 1.21 µM (active) in assay [30], 2.51 µM (active) in assay [31] and 0.0529 µM (active) in assay [32].
For the compound `CC(C)(C)c1nnc(NS(=O)(=O)c2ccccc2)s1` [GLYBUZOLE], the IC50 in assay [33] is 13.1 µM (inactive); in [34], > 33.3 µM (inactive).
